In US11274131B2, “IgM-mediated receptor clustering and cell modulation” (MAYO FOUNDATION FOR MEDICAL EDUCATION AND RESEARCH, priority 2007, dated 2022):

Test system: matured human monocyte-derived DC
Test: Antigen uptake assay, matured human DC
Type: cell-based
Conditions: inhibitor pretreatment before B7-DC XAb
Protocol: FIGS. 2A to 2G are a series of pictures showing that a kinase activated pathway regulates antibody-induced antigen uptake by matured DC. Matured human monocyte-derived DC were treated with the MTAb B7-DC XAb for varying time periods and evaluated for the phosphorylation status of select signaling pathway intermediates by immunoprecipitation with DAP12 (MC457), Syk (4D10), and PLCγ1 (MC490) reactive antibodies followed by western blot analysis using the phosphotyrosine reactive antibody 4G10 as a probe (FIGS. 2A-2C). Samples of the cells blocked with indicated concentration of piceatannol (FIG. 2D) or with […] of piceatannol (FIG. 2E) were analyzed for phosphorylation of Syk (FIG. 2D) and PLCγ1 (FIG. 2E). To investigate the functional importance of these signaling intermediates in the regulation of antigen uptake by matured DC activated with B7-DC XAb, varying concentrations of pharmacologic inhibitors were used to block the activity of p72Syk (piceatannol) and PLCγ1 (U73122) (FIGS. 2F and 2G, respectively). Antigen uptake was assessed by pulsing cultures with FITC-conjugated ovalbumin and measuring intracellular fluorescence 16 hours later in CD11c positive cells by flow cytometry.
Human DC were generated from peripheral blood CD14^+ monocytes by incubation in GM-CSF and IL-4 for five days. […] All cultures were pulsed with OVA-FITC at the time of treatment with IgM antibodies, and […] OVA-FITC was assessed 24 hours later by flow cytometry.
FIGS. 4A and 4B are a series of plots showing the effects of kinase inhibitors on OVA-FITC uptake by matured human DC, as determined by flow cytometry. […] All cells were pulsed with OVA-FITC at the time of treatment with IgM antibody, and CD11c+ cells were analyzed for OVA-FITC uptake 24 hours later by flow cytometry. […]
Antigen uptake experiments were carried out as described previously (Radhakrishnan et al. (2005) Proc. Natl. Acad. Sci. U.S.A. 102:11438-11443). […] The matured cells were incubated with ovalbumin labeled with FITC or APC and control antibody or B7-DC XAb for two hours, washed and analyzed by FACSCALIBUR™ (Becton Dickinson). […]

SMILES	inhibition of B7-DC XAb-induced antigen uptake by matured DC
CC(C)(C)n1nc(-c2ccc(Cl)cc2)c2c(N)ncnc21 [PP2]	inhibition of antigen uptake
COc1ccc2c(c1)CC[C@@H]1[C@@H]2CC[C@]2(C)[C@@H](NCCCCCCN3C(=O)C=CC3=O)CC[C@@H]12 [U73122]	inhibited uptake of tagged proteins by matured DC in a dose responsive manner
